Test results published in PubChem BioAssay (NCI).
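Dose response: 5 concentrations. Exposure: 48 h. Format: 96-well plates. Endpoint: linear interpolation; highest concentration if not reached. At the TGI there is no net growth.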

Assays:
Assay in all cases: inhibition of tumour cell growth, NCI panel, 48 h
MOLT-4 leukemia = test system: MOLT-4 leukemia
NCI-H226 lung = test system: NCI-H226 lung
NCI-H522 lung = test system: NCI-H522 lung
NCI/ADR-RES ovarian = test system: NCI/ADR-RES ovarian
SK-MEL-5 melanoma = test system: SK-MEL-5 melanoma
T-47D breast = test system: T-47D breast
TK-10 renal = test system: TK-10 renal
DLD-1 colon = test system: DLD-1 colon
DMS 114 small cell lung = test system: DMS 114 small cell lung
HOP-18 NSCLC = test system: HOP-18 NSCLC
LXFL 529 NSCLC = test system: LXFL 529 NSCLC
M19-MEL melanoma = test system: M19-MEL melanoma
SNB-78 CNS = test system: SNB-78 CNS
XF 498 CNS = test system: XF 498 CNS

Row | Compound | TGI (MOLT-4 leukemia) [µM] | TGI (NCI-H226 lung) [µM] | TGI (NCI-H522 lung) [µM] | TGI (NCI/ADR-RES ovarian) [µM] | TGI (SK-MEL-5 melanoma) [µM] | TGI (T-47D breast) [µM] | TGI (TK-10 renal) [µM] | TGI (DLD-1 colon) [µM] | TGI (DMS 114 small cell lung) [µM] | TGI (HOP-18 NSCLC) [µM] | TGI (LXFL 529 NSCLC) [µM] | TGI (M19-MEL melanoma) [µM] | TGI (SNB-78 CNS) [µM] | TGI (XF 498 CNS) [µM]
1 | O=c1[nH]nc(-c2ccccc2)n1/N=C/c1cccc([N+](=O)[O-])c1 | > 100 | > 100 | > 100 | > 100 | > 100 | > 100 | > 100 | – | – | – | – | – | – | –
2 | CCOP(=O)(OCC)/C(C#N)=C/c1ccccn1 | > 100 | > 100 | > 100 | > 100 | > 100 | > 100 | > 100 | – | – | – | – | – | – | –
3 | CC1(C)CO[P@@](=S)(c2ccccn2)O[C@@H]1c1ccccc1 | > 100 | > 100 | > 100 | > 100 | > 100 | > 100 | > 100 | – | – | – | – | – | – | –
4 | CC(=O)O[C@H]1CC[C@@]2(C)C(=CC[C@@H]3[C@@H]2CC[C@]2(C)c4c(n[nH]c4C)C[C@@H]32)C1 | 53.4 | 35.2 | 23 | 85.1 | 29.5 | 25 | 34.2 | – | – | – | – | – | – | –
5 | O=[N+]([O-])C(/C(Cl)=C(\Cl)Br)=C(/Cl)SCc1ccccc1 | 3.35 | 36.7 | 4.79 | 8.62 | 15 | 10.9 | 10.8 | – | – | – | – | – | – | –
6 | Cc1ccc(-c2c(-c3ccccc3)[nH]c(C)c2C(=O)ONC(=O)c2ccccc2)cc1 | 7.73 | 19.1 | 6.48 | 18.3 | 18.3 | 19.9 | 18.2 | – | – | – | – | – | – | –
7 | CC(C)(C)OC(=O)N1NC(c2ccccc2)CC1c1ccccc1 (configuration not stated) | > 100 | 88.2 | > 100 | 47.9 | 45.5 | 56.2 | > 100 | – | – | – | – | – | – | –
8 | CCc1ccc2[nH]c(O)c(C3=Nc4ccccc4C3=O)c2c1 | 64.2 | > 100 | 75.2 | > 100 | 33.4 | 77.5 | 37 | – | – | – | – | – | – | –
9 | O=C(c1ccccc1)N1C(=O)N(c2ccccc2)C(=Nc2ccccc2)C1=Nc1ccccc1 | > 100 | > 100 | > 100 | > 100 | > 100 | > 100 | > 100 | – | – | – | – | – | – | –
10 | N#Cc1c2ccc([N+](=O)[O-])cc2c(=O)n2c1[nH]c1ccc(C(F)(F)F)cc12 | > 100 | > 88.3 | 38.7 | > 100 | > 100 | > 100 | > 100 | – | – | – | – | – | – | –
11 | Cc1ccc2nc3n[nH]c(N)c3nc2c1 | > 100 | > 100 | > 100 | > 100 | > 100 | > 100 | > 100 | – | – | – | – | – | – | –
12 | COc1cc(/C=C2\C[C@H]3[C@@H]4CCC5=CC(=O)CC[C@]5(C)[C@H]4CC[C@]3(C)C2=O)cc(OC)c1OC | > 100 | > 100 | > 100 | > 100 | 15.9 | 9.09 | > 100 | – | – | – | – | – | – | –
13 | COc1cccc(-c2cc(=O)c3cc4c(cc3[nH]2)OCO4)c1 | > 100 | 0.593 | – | – | 0.327 | – | 54.5 | > 100 | > 100 | > 100 | 23.2 | > 100 | > 100 | 2.59
14 | CC12CCCCC1=C(F)C(F)(F)S2 (configuration not stated) | 36 | > 100 | 45.3 | > 100 | > 91.1 | 74.5 | 69.9 | – | – | – | – | – | – | –
